Experimental data published in publication PMC7558399, “In Vitro Selective Growth-Inhibitory Activities of Phytochemicals, Synthetic Phytochemical Analogs, and Antibiotics against Diarrheagenic/Probiotic Bacteria and Cancer/Normal Intestinal Cells” (Pharmaceuticals, 2020).
Converted amounts (≈) assume the structure as drawn. Read-outs that look alike come from different tables or passages of the source.

Key:
Assay type in all cases: cell-based
[1] = test system: Shigella flexneri (ATCC 12022); test: microbe, parasite or virus in culture; details: ATCC12022
[2] = test system: FHs 74 Int (ATCC CCL 241) intestinal normal cells; test: MTT cytotoxicity assay, FHs 74 Int; details: FHs74Int, 72 h; for IC50: read-out: IC50 ± SD; for IC80: read-out: IC80 ± SD (80% inhibitory concentration of proliferation)
[3] = test system: S. enterica ssp. enterica serovar Typhimurium (ATCC 14028); test: Broth microdilution MIC, Salmonella Typhimurium
[4] = test system: E. coli 0175:H7 (NCTC 12900); test: microbe, parasite or virus in culture; details: Escherichia coli, NCTC12900
[5] = test system: Bifidobacterium bifidum (ATCC 29521); test: Broth microdilution MIC, B. bifidum
[6] = test system: Yersinia enterocolitica (ATCC 9610); test: Broth microdilution MIC, Y. enterocolitica; details: ATCC9610
[7] = test system: Clostridium perfringens (DSMZ 11778); test: microbe, parasite or virus in culture; details: DSMZ11778
[8] = test system: Listeria monocytogenes (ATCC 7644); test: Broth microdilution MIC, L. monocytogenes
[9] = test system: Salmonella enterica ssp. enterica serovar Enteritidis (ATCC 13076); test: Broth microdilution MIC, Salmonella Enteritidis
[10] = test system: Bifidobacterium breve (ATCC 15700); test: Broth microdilution MIC, B. breve
[11] = test system: Lactobacillus reuteri (CCM 3625); test: Broth microdilution MIC, L. reuteri; details: Limosilactobacillus reuteri, CCM3625
[12] = test system: probiotic bacteria (9 strains); test: Broth microdilution MIC, probiotic bacteria as a group (mean or range over strains); details: read-out: x¯ -PB ± SD: mean MIC for probiotic bacteria
[13] = test system: diarrheagenic bacteria (12 strains); test: microbe, parasite or virus in culture
[14] = test system: Bifidobacterium adolescentis (DSMZ 20087); test: Broth microdilution MIC, B. adolescentis
[15] = test system: Bifidobacterium longum ssp. longum (DSMZ 20219); test: Broth microdilution MIC, B. longum ssp. longum; details: DSMZ20219
[16] = test system: Caco-2 (ATCC HTB 37) intestinal cancer cells; test: MTT cytotoxicity assay, Caco-2; details: Homo sapiens, Caco-2, 72 h
[17] = test system: Escherichia coli (ATCC 25922); test: Broth microdilution MIC, E. coli
[18] = test system: Lactobacillus rhamnosus (CCM 7091); test: Broth microdilution MIC, L. rhamnosus; details: Lacticaseibacillus rhamnosus, CCM7091
[19] = test system: Enterococcus faecalis (ATCC 29212); test: Broth microdilution MIC, E. faecalis
[20] = test system: HT29 (ATCC HTB 38) intestinal cancer cells; test: MTT cytotoxicity assay, HT29; details: Homo sapiens; for IC50: read-out: IC50 ± SD; for IC80: read-out: IC80 ± SD (80% inhibitory concentration of proliferation)
[21] = test system: Vibrio parahaemolyticus (ATCC 17802); test: Broth microdilution MIC, V. parahaemolyticus
[22] = test system: Bacteroides fragilis (ATCC 25285); test: Broth microdilution MIC, B. fragilis
[23] = test system: intestinal cancer cells (HT29 and Caco-2); test: MTT cytotoxicity assay, mean for intestinal cancer cells
[24] = test system: Bacillus cereus (ATCC 14579); test: Broth microdilution MIC, B. cereus
[25] = test system: Lactobacillus casei (DSMZ 20011); test: Broth microdilution MIC, L. casei; details: Lacticaseibacillus casei, DSMZ20011
[26] = test system: Bifidobacterium animalis spp. lactis (DSMZ 10140); test: Broth microdilution MIC, B. animalis spp. lactis; details: DSMZ10140
[27] = test system: Clostridium difficile (DSMZ 12056); test: microbe, parasite or virus in culture; details: Clostridioides difficile, DSMZ12056
[28] = FHs 74 Int (intestinal normal cells), MTT

SMILES: Oc1cccc2cccnc12 [8HQ, 8-hydroxyquinoline]
- MIC [1]: 128 µg/mL (≈ 882 µM)
- IC50 [2]: 10.7 ± 0.2 µg/mL (≈ 73.7 µM)
- IC80 [2]: 20.3 ± 2.4 µg/mL (≈ 140 µM)
- MIC [3]: 512 µg/mL (≈ 3530 µM)
- MIC [4]: 256 µg/mL (≈ 1760 µM)
- MIC ([5]; ATCC29521): 512 µg/mL (≈ 3530 µM)
- MIC [6]: 512 µg/mL (≈ 3530 µM)
- MIC [7]: 128 µg/mL (≈ 882 µM)
- MIC ([8]; ATCC7644): 1 µg/mL (≈ 6.89 µM)
- MIC [9]: 256 µg/mL (≈ 1760 µM)
- MIC ([10]; ATCC15700): > 512 µg/mL
- MIC [11]: > 512 µg/mL
- MIC [12]: 743 ± 343 µg/mL (≈ 5120 µM)
- MIC ([13]; read-out: x¯ -DB ± SD: mean MIC for diarrheagenic bacteria): 224 ± 181 µg/mL (≈ 1550 µM)
- MIC ([14]; DSMZ20087): 512 µg/mL (≈ 3530 µM)
- MIC ([15]; Bifidobacterium longum): 512 µg/mL (≈ 3530 µM)
- IC50 ([16]; read-out: IC50 ± SD): 0.3 ± 0.1 µg/mL (≈ 2.07 µM)
- IC80 ([16]; read-out: IC80 ± SD (80% inhibitory concentration of proliferation)): 0.9 ± 0.1 µg/mL (≈ 6.2 µM)
- MIC ([17]; ATCC25922): 128 µg/mL (≈ 882 µM)
- MIC [18]: > 512 µg/mL
- MIC ([19]; ATCC29212): 4 µg/mL (≈ 27.6 µM)
- IC50 ([20]; HT-29, 72 h): 1.3 ± 0.3 µg/mL (≈ 8.96 µM)
- IC80 ([20]; HT-29, 72 h): 4.8 ± 2.8 µg/mL (≈ 33.1 µM)
- MIC ([21]; ATCC17802): 128 µg/mL (≈ 882 µM)
- MIC ([22]; ATCC25285): 32 µg/mL (≈ 220 µM)
- IC50 ([23]; read-out: x¯ -CC ± SD: mean IC50 for intestinal cancer cells): 0.8 ± 0.5 µg/mL (≈ 5.51 µM)
- IC80 ([23]; read-out: x¯ -CC ± SD: mean IC80 for intestinal cancer cells): 2.9 ± 2 µg/mL (≈ 20 µM)
- MIC ([24]; ATCC14579): 512 µg/mL (≈ 3530 µM)
- MIC [25]: > 512 µg/mL
- MIC ([26]; Bifidobacterium animalis): > 512 µg/mL
- MIC [27]: 128 µg/mL (≈ 882 µM)

SMILES: O=C(O)c1cn(C2CC2)c2cc(N3CCNCC3)c(F)cc2c1=O [CP, ciprofloxacin]
- MIC [1]: 0.016 µg/mL (≈ 0.0483 µM)
- IC50 [2, 28]: 51.8 ± 27 µg/mL (≈ 156 µM)
- IC80 [2, 28]: 130 ± 24 µg/mL (≈ 391 µM)
- MIC ([3]; Salmonella Typhimurium, growth inhibited by ≥80%, read-out: MIC): 0.031 µg/mL (≈ 0.0936 µM)
- MIC [4]: 0.016 µg/mL (≈ 0.0483 µM)
- MIC ([5]; ATCC29521, growth inhibited by ≥80%, read-out: MIC): 16 µg/mL (≈ 48.3 µM)
- MIC ([8]; ATCC7644, growth inhibited by ≥80%, read-out: MIC): 4 µg/mL (≈ 12.1 µM)
- MIC ([9]; Salmonella Enteritidis, growth inhibited by ≥80%, read-out: MIC): 0.031 µg/mL (≈ 0.0936 µM)
- MIC ([10]; ATCC15700, growth inhibited by ≥80%, read-out: MIC): 64 µg/mL (≈ 193 µM)
- MIC ([11]; Lactobacillus reuteri, growth inhibited by ≥80%, read-out: MIC): 32 µg/mL (≈ 96.6 µM)
- MIC ([12]; mean of 9 strains, >512 replaced with 1024): 23.6 ± 18 µg/mL (≈ 71.2 µM)
- MIC ([13]; all gram-negative diarrheagenic bacteria, range over strains, read-out: MICs): 0.016 to 0.125 µg/mL (≈ 0.0483 to 0.377 µM)
- MIC ([13]; gram-positive pathogens, range over strains, read-out: MICs): 1 to 16 µg/mL (≈ 3.02 to 48.3 µM)
- MIC ([13]; mean of 12 strains, >512 replaced with 1024, read-out: x¯ -DB ± SD: mean MIC for diarrheagenic bacteria): 2 ± 4 µg/mL (≈ 6.04 µM)
- MIC ([14]; DSMZ20087, growth inhibited by ≥80%, read-out: MIC): 8 µg/mL (≈ 24.1 µM)
- MIC ([15]; Bifidobacterium longum ssp. longum, growth inhibited by ≥80%, read-out: MIC): 16 µg/mL (≈ 48.3 µM)
- MIC ([17]; ATCC25922, growth inhibited by ≥80%, read-out: MIC): 0.062 µg/mL (≈ 0.187 µM)
- MIC ([18]; Lactobacillus rhamnosus, growth inhibited by ≥80%, read-out: MIC): 4 µg/mL (≈ 12.1 µM)
- MIC ([19]; ATCC29212, growth inhibited by ≥80%, read-out: MIC): 2 µg/mL (≈ 6.04 µM)
- IC50 ([20]; HT-29, HT29, MTT, 72 h): 130 ± 13 µg/mL (≈ 393 µM)
- IC80 ([20]; HT-29, HT29, MTT, 72 h): > 512 µg/mL
- MIC ([21]; ATCC17802, growth inhibited by ≥80%, read-out: MIC): 0.062 µg/mL (≈ 0.187 µM)
- MIC ([22]; ATCC25285, growth inhibited by ≥80%, read-out: MIC): 8 µg/mL (≈ 24.1 µM)
- MIC ([24]; ATCC14579, growth inhibited by ≥80%, median/mode, read-out: MIC): 1 µg/mL (≈ 3.02 µM)
- MIC ([25]; Lactobacillus casei, growth inhibited by ≥80%, read-out: MIC): 32 µg/mL (≈ 96.6 µM)
- MIC ([26]; Bifidobacterium animalis spp. lactis, growth inhibited by ≥80%, read-out: MIC): 32 µg/mL (≈ 96.6 µM)
